The record followed here is ChEMBL document CHEMBL1201862, “PubChem BioAssay data set” (2004).

Among the test systems are MDA-MB-435; T47D; DU-145; PC-3; NCI/ADR-RES.
Holding throughout (assay): growth of human tumour cells (NCI), 48 h

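In this assay, cells in 96-well plates receive the compound at five concentrations for 48 hours. Endpoints are linearly interpolated between the surrounding concentrations. GI50 = concentration required for 50% inhibition of growth.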 Calls of active or inactive are those of the source. No stated cut-off is given here; in the data, active = GI50 up to about 1.1 µM and inactive = higher. Some results are limits rather than exact numbers.

`NNC(=O)c1ccc(OCc2nc3ccccc3[nH]2)cc1`: the GI50 is > 100 µM (inactive) in the test on MDA-MB-435; 53.7 µM (inactive) in the test on T47D; 94.2 µM (inactive) with DU-145; > 100 µM (inactive) with PC-3; > 100 µM (inactive) with NCI/ADR-RES.
Turning to `NC1CNC(=O)c2c(Cl)sc(Cl)c21` (stereo unspecified), the GI50 with MDA-MB-435, in the test with T47D, in the test on DU-145, in the test with PC-3 and with NCI/ADR-RES was > 100 µM (inactive) throughout.
With `CCCCCCCCSC1=C(Cl)C(=O)C(OC)=C(OC)C1=O`, the GI50 in the test with MDA-MB-435 was 4.45 µM (inactive); in the test with T47D, 5.08 µM (inactive); in the test with DU-145, 15.1 µM (inactive); in the test on PC-3, 14.2 µM (inactive); with NCI/ADR-RES, 17.4 µM (inactive).
In the same order, the values of `COc1cc(/C=C2\N=C(c3ccccc3)N(c3ccc(S(=O)(=O)Nc4nccs4)cc3)C2=O)ccc1O` are 95.3 µM (inactive), 85.5 µM (inactive), > 100 µM (inactive), 82.6 µM (inactive) and > 100 µM (inactive).
Turning to `Cc1cc2nc3c(N)nn(CCN(C)C)c3nc2cc1C`, the GI50 in the test with MDA-MB-435 was 37.9 µM (inactive); with T47D, 42.3 µM (inactive); with DU-145, 40.8 µM (inactive); with PC-3, 44.3 µM (inactive); with NCI/ADR-RES, 33.3 µM (inactive).
Take `CCCCNC(=O)Nc1c(C(N)=O)c2n(c1C(=O)OCC)CCCCC2`: the GI50 in the test with MDA-MB-435, in the test with T47D, in the test on DU-145, with PC-3 and in the test on NCI/ADR-RES was > 100 µM (inactive) each time.
As to `CC(=O)O[C@H]1[C@@H](N2CCOCC2)C[C@H]2[C@@H]3CC=C4C[C@@H](N5CCCC5)CC[C@]4(C)[C@H]3CC[C@@]21C`, the GI50 with MDA-MB-435, with T47D, in the test on DU-145, in the test on PC-3 and in the test on NCI/ADR-RES was > 100 µM (inactive) throughout.
For the compound `CC(C)C(=O)OCC1OC(n2c(Br)nc3c(=O)[nH]c(N)nc32)C(OC(=O)C(C)C)C1OC(=O)C(C)C` (stereo unspecified), the GI50 in the test with T47D was 54.8 µM (inactive); in the test on DU-145, > 100 µM (inactive); with PC-3, 21.6 µM (inactive); in the test on NCI/ADR-RES it was > 100 µM (inactive).
For the compound `COc1cc(/C=N/N=C(\N)NO)cc(OC)c1OC`, the GI50 with MDA-MB-435 was 44.6 µM (inactive); with T47D, 36.6 µM (inactive); in the test with DU-145 it was 26.3 µM (inactive); in the test with PC-3 it was 44.6 µM (inactive); in the test on NCI/ADR-RES, 15.7 µM (inactive).
`Cn1c2c(c3ccccc31)CC(=O)N1CCCC(C1)CC21OCCO1` (stereo unspecified): the GI50 with MDA-MB-435, in the test with T47D, with DU-145, in the test with PC-3 and with NCI/ADR-RES was > 100 µM (inactive) each time.
In the case of `Brc1cccc(C2(CCCC3(c4cccc(Br)n4)OCCO3)OCCO2)n1`, the GI50 with MDA-MB-435, in the test with T47D, with PC-3 and in the test on NCI/ADR-RES was > 100 µM (inactive) throughout.
As for `O=C1OC2(C(F)(F)F)Oc3ccccc3CN2C12CCCCC2` (stereo unspecified), the GI50 in the test on MDA-MB-435 was 39.6 µM (inactive); in the test on T47D, 21.8 µM (inactive); in the test with DU-145, 32.3 µM (inactive); in the test with PC-3, 27.6 µM (inactive); with NCI/ADR-RES it was 31.1 µM (inactive).
Turning to `O=c1c2c(F)c(F)c(F)c(F)c2sc2nccn12`, the GI50 was 14.9 µM (inactive) with MDA-MB-435; 0.745 µM (active) in the test with T47D; 19.9 µM (inactive) in the test on DU-145; 18.4 µM (inactive) in the test on PC-3; 26.8 µM (inactive) in the test on NCI/ADR-RES.
Turning to `O=C(c1ccco1)C1CC(c2ccc3ccccc3c2O)=NN1` (stereo unspecified), the GI50 with MDA-MB-435 is 56.6 µM (inactive); with T47D it was 92.7 µM (inactive); in the test on DU-145, > 100 µM (inactive); in the test on PC-3, 70.8 µM (inactive); with NCI/ADR-RES, 91.4 µM (inactive).
As for `O=C1NC(=O)C(C(CC(=O)c2ccc(Cl)cc2)c2ccc(Cl)cc2)C(=O)N1` (stereo unspecified), the GI50 in the test with MDA-MB-435 is 89.1 µM (inactive); in the test on DU-145, > 100 µM (inactive); in the test on PC-3 it was > 100 µM (inactive).
For `CCOC(O)(NC(=O)C(C(F)(F)F)C(F)(F)F)C(F)(F)F` (stereo unspecified), the GI50 in the test on MDA-MB-435, in the test with T47D, with PC-3 and with NCI/ADR-RES was > 100 µM (inactive) each time.
As for `O=C1C=CC(O)(C#CCO)C=C1`, the GI50 in the test on MDA-MB-435 was 12.4 µM (inactive); in the test with T47D it was 15.2 µM (inactive); with DU-145, 16 µM (inactive); in the test with PC-3, 16.9 µM (inactive); with NCI/ADR-RES, 6.73 µM (inactive).
In the case of `O=c1[nH]nc(-c2ccccc2)n1/N=C/c1ccco1`, the GI50 with MDA-MB-435, with T47D, in the test with DU-145, with PC-3 and with NCI/ADR-RES was > 100 µM (inactive) in each case.
With `CCOC(=O)c1cc(C(=O)c2ccccc2)n2nc(-c3ccc(Cl)cc3)ccc12`, the GI50 is 33.6 µM (inactive) in the test on MDA-MB-435; 21.9 µM (inactive) in the test on T47D; 27.6 µM (inactive) in the test with DU-145; 15.5 µM (inactive) with PC-3; 23.4 µM (inactive) in the test on NCI/ADR-RES.
Turning to `C#C[C@]1(O)CC[C@H]2[C@@H]3CCC4=C/C(=N\OCCN5CCCCC5)CC[C@]4(C)[C@H]3CC[C@@]21C`, the GI50 in the test with MDA-MB-435 was 2.24 µM (inactive); with T47D it was 2.69 µM (inactive); in the test on DU-145, 8.51 µM (inactive); in the test with PC-3 it was 3.39 µM (inactive); with NCI/ADR-RES it was 3.52 µM (inactive).
Regarding `CC(C)CNC(=O)Cn1c2c(c3ccccc31)CCCC2`, the GI50 was 73.3 µM (inactive) in the test on MDA-MB-435, 58.5 µM (inactive) with PC-3 and 59.7 µM (inactive) in the test on NCI/ADR-RES.
Take `C=CCOC1=C(OC(C)=O)C(C2COC(C)(C)O2)OC1=O` (stereo unspecified): the GI50 is 21.9 µM (inactive) in the test on MDA-MB-435; 18.5 µM (inactive) with T47D; 36.6 µM (inactive) in the test with DU-145; 70 µM (inactive) in the test with PC-3; 31.5 µM (inactive) in the test on NCI/ADR-RES.
On to `Cn1nc(-c2ccc(S(=O)(=O)N/C(=N/c3ccc(Cl)cc3)NN)s2)cc1C(F)(F)F`, for which the GI50 in the test on T47D is 13.3 µM (inactive); in the test with DU-145, 17.1 µM (inactive); with PC-3 it was 16.9 µM (inactive); in the test with NCI/ADR-RES it was 21.8 µM (inactive).
On to `COc1ccc(C2NC(N)=C(C#N)C3=C2C(C)CCC3)cc1OC` (stereo unspecified), for which the GI50 in the test on MDA-MB-435 is 63.5 µM (inactive); with T47D, 2.96 µM (inactive); with DU-145, > 100 µM (inactive); in the test with PC-3, 44.8 µM (inactive); in the test with NCI/ADR-RES, 35.2 µM (inactive).
As to `COc1ccc(C2=C(OC(=O)N(C)C)c3cccn3-c3cc(Cl)ccc3S2)cc1`, the GI50 in the test on MDA-MB-435 was > 10 µM (inactive); in the test with T47D it was 5.3 µM (inactive); in the test on DU-145 it was > 10 µM (inactive); in the test on PC-3, 5.64 µM (inactive).
`Cn1c(O)c(C2=Nc3ccccc3C2=O)c2ccccc21`: the GI50 with MDA-MB-435, in the test with T47D, with DU-145, in the test on PC-3 and in the test on NCI/ADR-RES was > 100 µM (inactive) each time.
